{
  "source": "patent US12377095B2",
  "about": "“Use of ligustrazine nitrone derivatives in treatment and prevention of diabetic complication diseases” (QINGDAO HAILAN PHARMACEUTICALS CO., LTD., priority 2019, dated 2025)",
  "key": {"[1]": {"test_system": "diabetic neuropathy model rats", "assay": "Mechanical pain threshold (von Frey) in diabetic neuropathy model rats", "assay_type": "in vivo, rat", "settings": "TBN 30 mg/kg twice a day", "protocol": "Modeling method: STZ was weighed and transferred to a centrifuge tube, wrapped with aluminum foil, kept away from light, and stored at −20° C. STZ sodium citrate solution is prepared when it is in need to use. The rats were fasted without water for 12 hours before injection. After weighing, the rats were injected with 55 mg/kg STZ intraperitoneally (STZ needs to be injected quickly, and the injection was completed within 10 minutes), and then returned to the cage to ensure that the rats had sufficient drinking water for 24 hours. Rats were injected with an equal volume of citrate buffer (pH 4.5). Four weeks after STZ injection, blood was collected from the tail vein, and the rats with blood glucose less than 16.7 mmol/L were eliminated; the taillick threshold temperature was increased, and the mechanical withdrawal threshold (MWT) was decreased, as the standard of a successful DPN model.\nThe animals were randomly divided into 3 groups (n=7), namely the normal control group, the model group, and the TBN (30 mg/kg) group. The normal group and the model group were injected with an equal volume of normal saline, and TBN was administered twice a day (fixed at 9:00-10:00 am and 3:00-4:00 pm), continuously for 4 weeks.\nExperiment for detecting mechanical pain threshold: In a quiet environment, the rats were individually placed in a porous steel wire cage. […]"}, "[2]": {"test_system": "spontaneous diabetic model in rhesus monkeys", "assay": "Spontaneous diabetic model in rhesus monkeys, serum EPO and iron", "assay_type": "in vivo"}, "[3]": {"test_system": "STZ-induced DKD rats", "assay": "HE staining of kidney tissue, STZ-induced SD rat DKD model", "assay_type": "in vivo", "protocol": "(§1) Before the injection, the rats were fasted for 12 hours without water. After weighing, the rats were injected with 55 mg/kg STZ intraperitoneally (STZ needs to be injected quickly, and the injection was completed within 10 minutes), and then returned to the cage to ensure that the rats had sufficient drinking water for 24 hours. Rats were injected with an equal volume of citrate buffer (pH 4.5). After STZ injection for 3 weeks, blood was collected from the tail vein, and blood glucose ≥16.7 mmol/L was used as the criteria for the standard of the rats.\n(§2) The route of administration is intragastric administration. TBN was administered twice a day (fixed at 9:00-10:00 am and 3:00-4:00 pm), and Losartan was administered once a day (fixed at 9:00-10:00 am) continuously for 6 weeks.\nAt the end of the experiment, kidney tissues were quickly separated, fixed with 4% paraformaldehyde and embedded in paraffin, serially sliced, 5 μm each, dried at 37° C. for 1 h, and then stained with hematoxylin and eosin (HE). The process is briefly as follows: paraffin sections were taken out of the 65° C. oven and immediately put in xylene to dewax and rehydrated with gradient alcohol, stained with hematoxylin staining solution for 10 minutes, and microscopically controlled alcohol differentiation with 1% hydrochloric acid was performed until the chromatin of the nucleus and the nucleus becomes clear; 1% ammonia water-ethanol solution is blue; 0.5% eosin Y-ethanol solution is stained for 3 min, and finally dehydrated routinely, mounted, and the tissue morphology changes are observed under a light microscope. […] The glomerular volume of rats in the DKD group of the Vehicle group increased, the mesangial area was diffusely widened, the mesangial cells were proliferated, the capillary loops were expanded, the mesangial matrix increased, and the glomerular capillary basement membrane was irregularly thickened. Renal pathological changes such as vacuole deformation, shedding of renal tubular epithelial cells and infiltration of a large number of inflammatory cells (FIG. 9A)."}, "[4]": {"test_system": "STZ-induced DKD rats", "assay": "PAS staining, glomerular sclerosis index, STZ-induced DKD rats", "assay_type": "in vivo, rat", "settings": "all doses of TBN (10, 30, 60 mg/kg twice/day); Losartan 10 mg/kg once/day; 6 weeks; P<0.001 vs Vehicle", "protocol": "as §1, §2\nAt the end of the experiment, kidney tissues were quickly separated, fixed with 4% paraformaldehyde and embedded in paraffin, serially sliced, 5 μm each, dried at 37° C. for 1 h, and then stained with PAS. The process is briefly as follows: paraffin sections are taken out of the 65° C. oven and immediately placed in xylene for deparaffinization and gradient alcohol rehydration, followed by periodic acid treatment for 5 min and Schiff treatment for 10 min, and then differentiation is performed with differentiation solution for 10 s. […]"}, "[5]": {"test_system": "STZ-induced DKD rats", "assay": "Retinopathy of STZ-induced DKD rats", "assay_type": "in vivo, rat", "settings": "DKD rats after treatment, Table 1 (FIG. 5)", "protocol": "SD rats (200±10 g) were used as model animals, which were fasted for 12 h before injection. STZ was dissolved in citrate buffer at 1% concentration, and rats were fasted and intraperitoneally injected with 55 mg/kg STZ and placed in the cage, the rats being ensured with adequate water intake for 24 h. STZ injections need to be fast and complete within 10 minutes of injection. The normal control group was injected with an equal volume of pH 4.5 citric acid-sodium citrate buffer. The state of the animals (multiple drinking and polyuria) was observed. After 3 weeks of STZ injection, blood was collected from the tail vein, and fasting blood glucose ≥16.7 mmol/L was measured as the standard for diabetic nephropathy in rats.\nDKD rats were randomly assigned to 6 groups and given with different drugs. After 6 weeks of administration, the experiment was terminated and the protective effect of the drug on DKD rats was observed.\nDuring the experiment, the retinopathy of rats was observed during daily administration, and the dates of retinopathy in different groups of rats were recorded."}},
  "data": [
    {"smiles": "Cc1nc(C)c(/C=[N+](\\[O-])C(C)(C)C)nc1C", "note": "[TBN]", "values": [
      {"measurement": "mechanical pain threshold vs model group", "setting": "[1]; 2 weeks after administration (6 weeks after STZ)", "result": "no statistically significant difference"},
      {"measurement": "mechanical pain threshold vs model group", "setting": "[1]; 4 weeks after administration (8 weeks after STZ), P<0.05", "result": "increased"},
      {"measurement": "serum EPO content", "setting": "[2]", "result": "increase"},
      {"measurement": "serum iron content", "setting": "[2]", "result": "increase"},
      {"measurement": "renal pathological changes (HE)", "setting": "[3]; 60 mg/kg i.g. twice/day, 6 weeks", "result": "improved the most"},
      {"measurement": "renal pathological changes (HE)", "setting": "[3]; each dose group of TBN (10, 30, 60 mg/kg i.g. twice/day, 6 weeks)", "result": "improved"},
      {"measurement": "glomerular sclerosis index", "setting": "[4]", "result": "significantly reduce"},
      {"measurement": "number of retinopathy", "setting": "[5]", "result": "reduced"},
      {"measurement": "time when retinopathy occurred", "setting": "[5]", "result": "relatively delayed"}
    ]}
  ]
}
